According to patent US7767240B2, “Microbiological control in poultry processing” (priority 2001, dated 2010):

Key:
Assay in all cases: Bacteria count per bird over 20-day storage (Example 4)
Format in all cases: cell-based
Settings in all cases: pH 8
[1] = test system: Listeria monocytogenes ATCC 7644
Method: (§1) A study was conducted to determine the effect of Clorox® bleach, and 1,3-dibromo-5,5-dimethylhydantoin (DBDMH) on carcass bacteria residual after 1.5 hour in a chill tank solution and spoilage 20-day shelf life longevity (caused by bacteria contamination). Tests were conducted at pH 8 (adjusted by trisodium phosphate). Skin pigmentation (Minolta Color Meter L value or Lightness, a value or redness and b value or yellowness) were determined before and post-processing.
(§2) In general the study involved normal processing of 56-day-old birds, immersing carcasses first in a warm bath containing 10^4 per mL Escherichia coli, 10^4 per mL Salmonella enteritidis, 10^4 per mL Pseudomonas aeruginosa, 10^4 per mL Campylobacter jejuni, and 10^4 per mL spoilage bacteria each from […] strains (Listeria monocytogenes and Shigella sonnei). Carcass were then immersed in a chill tank “soup”, containing normal organic fluids (blood, fat, skin, and meat particles) and containing various disinfectants (termed test materials).
(§3) A DBDMH stock solution and test solutions, a bacteria stock solution, and a “chicken soup” were prepared as in Example 3. In addition, the bacterial broth treatments, the whole bird wash sampling procedure, and the methodologies used for quantitative or qualitative determinations for bacterial organisms were conducted as in Example 3.
(§4) In greater detail the trial events and experimental design used in this group of tests were as follows: • a) Test microorganisms used were: • Escherichia coli ATCC 11229 • Pseudomonas aeruginosa ATCC 15442 • Salmonella enteritidis ATCC 13076 • Shigella sonnei ATCC 9290 • Listeria monocytogenes ATCC 7644 • Campylobacter jejuni ATCC 29428 • b) Test Procedure: All test strains were grown individually at 35° C. for 24 hours in the media specified in Table 12. Cells were harvested by centrifugation at 10,000×g for 10 minutes and washed twice with Butterfield's Phosphate Buffer (BPB of pH 7.2). Cells were resuspended in BPB to obtain a cell suspension of approximately 1.0×10^8 CFU/mL for each microorganism. The target inoculum levels were approximately 10^6 CFU/mL in the final test solutions. In the cases of S. enteritidis and P. aeruginosa the species were washed by pouring into prepared sterile centrifuge tubes with cheesecloth filters. The culture was then pelleted and washed using above techniques and repeated 3 times. • c) The birds (56 days old) were processed under normal commercial conditions. • d) The bacteria were added to a large batch of the “chicken soup”, and then aliquots of the resultant mixture were distributed equally among the chill waters used for each test. Then the particular disinfectant composition under test was added to one of the chill waters. […]

[2] = test system: Pseudomonas aeruginosa ATCC 15442
Method: as §1, §2, §3, §4

[3] = test system: Salmonella enteritidis ATCC 13076
Method: as §1, §2, §3, §4

[4] = test system: Campylobacter jejuni ATCC 29428
Method: as §1, §2, §3, §4

[5] = test system: Shigella sonnei ATCC 9290
Method: as §1, §2, §3, §4

## CC1(C)C(=O)N(Br)C(=O)N1Br [DBDMH, 1,3-dibromo-5,5-dimethylhydantoin]
[1]; Day 0, 10 ppm
  average bacteria count per bird, L. monocytogenes: 528 per bird
[1]; Day 0, 20 ppm
  average bacteria count per bird, L. monocytogenes: 13 per bird
[1]; Day 2, 10 ppm
  average bacteria count per bird, L. monocytogenes: 601 per bird
[1]; Day 2, 20 ppm
  average bacteria count per bird, L. monocytogenes: 19 per bird
[1]; Day 4, 10 ppm
  average bacteria count per bird, L. monocytogenes: 670 per bird
[1]; Day 4, 20 ppm
  average bacteria count per bird, L. monocytogenes: 28 per bird
[1]; Day 6, 10 ppm
  average bacteria count per bird, L. monocytogenes: 741 per bird
[1]; Day 6, 20 ppm
  average bacteria count per bird, L. monocytogenes: 55 per bird
[1]; Day 8, 10 ppm
  average bacteria count per bird, L. monocytogenes: 880 per bird
[1]; Day 8, 20 ppm
  average bacteria count per bird, L. monocytogenes: 107 per bird
[1]; Day 10, 10 ppm
  average bacteria count per bird, L. monocytogenes: 1096 per bird
[1]; Day 10, 20 ppm
  average bacteria count per bird, L. monocytogenes: 218 per bird
[1]; Day 12, 10 ppm
  average bacteria count per bird, L. monocytogenes: 1335 per bird
[1]; Day 12, 20 ppm
  average bacteria count per bird, L. monocytogenes: 442 per bird
[1]; Day 14, 10 ppm
  average bacteria count per bird, L. monocytogenes: 1564 per bird
[1]; Day 14, 20 ppm
  average bacteria count per bird, L. monocytogenes: 843 per bird
[1]; Day 16, 10 ppm
  average bacteria count per bird, L. monocytogenes: 1901 per bird
[1]; Day 16, 20 ppm
  average bacteria count per bird, L. monocytogenes: 1646 per bird
[1]; Day 18, 10 ppm
  average bacteria count per bird, L. monocytogenes: 2221 per bird
[1]; Day 18, 20 ppm
  average bacteria count per bird, L. monocytogenes: 1985 per bird
[1]; Day 20, 10 ppm
  average bacteria count per bird, L. monocytogenes: 2678 per bird
[1]; Day 20, 20 ppm
  average bacteria count per bird, L. monocytogenes: 2238 per bird
[2]; Day 0, 10 ppm
  average bacteria count per bird, P. aeruginosa: 743 per bird
[2]; Day 0, 20 ppm
  average bacteria count per bird, P. aeruginosa: 6 per bird
[2]; Day 2, 10 ppm
  average bacteria count per bird, P. aeruginosa: 820 per bird
[2]; Day 2, 20 ppm
  average bacteria count per bird, P. aeruginosa: 9 per bird
[2]; Day 4, 10 ppm
  average bacteria count per bird, P. aeruginosa: 931 per bird
[2]; Day 4, 20 ppm
  average bacteria count per bird, P. aeruginosa: 13 per bird
[2]; Day 6, 10 ppm
  average bacteria count per bird, P. aeruginosa: 1013 per bird
[2]; Day 6, 20 ppm
  average bacteria count per bird, P. aeruginosa: 25 per bird
[2]; Day 8, 10 ppm
  average bacteria count per bird, P. aeruginosa: 1268 per bird
[2]; Day 8, 20 ppm
  average bacteria count per bird, P. aeruginosa: 48 per bird
[2]; Day 10, 10 ppm
  average bacteria count per bird, P. aeruginosa: 1485 per bird
[2]; Day 10, 20 ppm
  average bacteria count per bird, P. aeruginosa: 91 per bird
[2]; Day 12, 10 ppm
  average bacteria count per bird, P. aeruginosa: 1730 per bird
[2]; Day 12, 20 ppm
  average bacteria count per bird, P. aeruginosa: 186 per bird
[2]; Day 14, 10 ppm
  average bacteria count per bird, P. aeruginosa: 2055 per bird
[2]; Day 14, 20 ppm
  average bacteria count per bird, P. aeruginosa: 363 per bird
[2]; Day 16, 10 ppm
  average bacteria count per bird, P. aeruginosa: 2560 per bird
[2]; Day 16, 20 ppm
  average bacteria count per bird, P. aeruginosa: 700 per bird
[2]; Day 18, 10 ppm
  average bacteria count per bird, P. aeruginosa: 3087 per bird
[2]; Day 18, 20 ppm
  average bacteria count per bird, P. aeruginosa: 826 per bird
[2]; Day 20, 10 ppm
  average bacteria count per bird, P. aeruginosa: 3853 per bird
[2]; Day 20, 20 ppm
  average bacteria count per bird, P. aeruginosa: 908 per bird
[3]; Day 0, 10 ppm
  average bacteria count per bird, S. enteritidis: 292 per bird
[3]; Day 0, 20 ppm
  average bacteria count per bird, S. enteritidis: 12 per bird
[3]; Day 2, 10 ppm
  average bacteria count per bird, S. enteritidis: 344 per bird
[3]; Day 2, 20 ppm
  average bacteria count per bird, S. enteritidis: 18 per bird
[3]; Day 4, 10 ppm
  average bacteria count per bird, S. enteritidis: 394 per bird
[3]; Day 4, 20 ppm
  average bacteria count per bird, S. enteritidis: 27 per bird
[3]; Day 6, 10 ppm
  average bacteria count per bird, S. enteritidis: 433 per bird
[3]; Day 6, 20 ppm
  average bacteria count per bird, S. enteritidis: 55 per bird
[3]; Day 8, 10 ppm
  average bacteria count per bird, S. enteritidis: 507 per bird
[3]; Day 8, 20 ppm
  average bacteria count per bird, S. enteritidis: 104 per bird
[3]; Day 10, 10 ppm
  average bacteria count per bird, S. enteritidis: 616 per bird
[3]; Day 10, 20 ppm
  average bacteria count per bird, S. enteritidis: 212 per bird
[3]; Day 12, 10 ppm
  average bacteria count per bird, S. enteritidis: 740 per bird
[3]; Day 12, 20 ppm
  average bacteria count per bird, S. enteritidis: 413 per bird
[3]; Day 14, 10 ppm
  average bacteria count per bird, S. enteritidis: 919 per bird
[3]; Day 14, 20 ppm
  average bacteria count per bird, S. enteritidis: 832 per bird
[3]; Day 16, 10 ppm
  average bacteria count per bird, S. enteritidis: 1081 per bird
[3]; Day 16, 20 ppm
  average bacteria count per bird, S. enteritidis: 1711 per bird
[3]; Day 18, 10 ppm
  average bacteria count per bird, S. enteritidis: 1286 per bird
[3]; Day 18, 20 ppm
  average bacteria count per bird, S. enteritidis: 2074 per bird
[3]; Day 20, 10 ppm
  average bacteria count per bird, S. enteritidis: 1513 per bird
[3]; Day 20, 20 ppm
  average bacteria count per bird, S. enteritidis: 2258 per bird
[4]; Day 0, 10 ppm
  average bacteria count per bird, C. jejuni: 519 per bird
[4]; Day 0, 20 ppm
  average bacteria count per bird, C. jejuni: 17 per bird
[4]; Day 2, 10 ppm
  average bacteria count per bird, C. jejuni: 573 per bird
[4]; Day 2, 20 ppm
  average bacteria count per bird, C. jejuni: 25 per bird
[4]; Day 4, 10 ppm
  average bacteria count per bird, C. jejuni: 627 per bird
[4]; Day 4, 20 ppm
  average bacteria count per bird, C. jejuni: 39 per bird
[4]; Day 6, 10 ppm
  average bacteria count per bird, C. jejuni: 671 per bird
[4]; Day 6, 20 ppm
  average bacteria count per bird, C. jejuni: 78 per bird
[4]; Day 8, 10 ppm
  average bacteria count per bird, C. jejuni: 834 per bird
[4]; Day 8, 20 ppm
  average bacteria count per bird, C. jejuni: 157 per bird
[4]; Day 10, 10 ppm
  average bacteria count per bird, C. jejuni: 1043 per bird
[4]; Day 10, 20 ppm
  average bacteria count per bird, C. jejuni: 294 per bird
[4]; Day 12, 10 ppm
  average bacteria count per bird, C. jejuni: 1309 per bird
[4]; Day 12, 20 ppm
  average bacteria count per bird, C. jejuni: 594 per bird
[4]; Day 14, 10 ppm
  average bacteria count per bird, C. jejuni: 1551 per bird
[4]; Day 14, 20 ppm
  average bacteria count per bird, C. jejuni: 1191 per bird
[4]; Day 16, 10 ppm
  average bacteria count per bird, C. jejuni: 1880 per bird
[4]; Day 16, 20 ppm
  average bacteria count per bird, C. jejuni: 2259 per bird
[4]; Day 18, 10 ppm
  average bacteria count per bird, C. jejuni: 2359 per bird
[4]; Day 18, 20 ppm
  average bacteria count per bird, C. jejuni: 2835 per bird
[4]; Day 20, 10 ppm
  average bacteria count per bird, C. jejuni: 2789 per bird
[4]; Day 20, 20 ppm
  average bacteria count per bird, C. jejuni: 3059 per bird
[5]; Day 0, 10 ppm
  average bacteria count per bird, S. sonnei: 845 per bird
[5]; Day 0, 20 ppm
  average bacteria count per bird, S. sonnei: 8 per bird
[5]; Day 2, 10 ppm
  average bacteria count per bird, S. sonnei: 962 per bird
[5]; Day 2, 20 ppm
  average bacteria count per bird, S. sonnei: 12 per bird
[5]; Day 4, 10 ppm
  average bacteria count per bird, S. sonnei: 1101 per bird
[5]; Day 4, 20 ppm
  average bacteria count per bird, S. sonnei: 19 per bird
[5]; Day 6, 10 ppm
  average bacteria count per bird, S. sonnei: 1288 per bird
[5]; Day 6, 20 ppm
  average bacteria count per bird, S. sonnei: 37 per bird
[5]; Day 8, 10 ppm
  average bacteria count per bird, S. sonnei: 1604 per bird
[5]; Day 8, 20 ppm
  average bacteria count per bird, S. sonnei: 76 per bird
[5]; Day 10, 10 ppm
  average bacteria count per bird, S. sonnei: 1954 per bird
[5]; Day 10, 20 ppm
  average bacteria count per bird, S. sonnei: 156 per bird
[5]; Day 12, 10 ppm
  average bacteria count per bird, S. sonnei: 2347 per bird
[5]; Day 12, 20 ppm
  average bacteria count per bird, S. sonnei: 323 per bird
[5]; Day 14, 10 ppm
  average bacteria count per bird, S. sonnei: 2848 per bird
[5]; Day 14, 20 ppm
  average bacteria count per bird, S. sonnei: 657 per bird
[5]; Day 16, 10 ppm
  average bacteria count per bird, S. sonnei: 3513 per bird
[5]; Day 16, 20 ppm
  average bacteria count per bird, S. sonnei: 1286 per bird
[5]; Day 18, 10 ppm
  average bacteria count per bird, S. sonnei: 4242 per bird
[5]; Day 18, 20 ppm
  average bacteria count per bird, S. sonnei: 1604 per bird
[5]; Day 20, 10 ppm
  average bacteria count per bird, S. sonnei: 4941 per bird
[5]; Day 20, 20 ppm
  average bacteria count per bird, S. sonnei: 1834 per bird
